# Measurements taken from US8450266B2 (Ipsen Pharma S.A.S., priority 2008, dated 2013).
# Where a SMILES comes first, the peptide text is derived from it. [ ]: non-standard residue; d: D form. The star is where a group is joined. Decanoyl = CCCCCCCCCC(=O)*; Ac6c = NC1(C(=O)O)CCCCC1; Orn = NCCC[C@H](N)C(=O)O
# Key:
# [1] = biological target: T1, human recombinant GIP receptor (Homo sapiens, UniProt P48546); experiment: In vitro hGIP receptor binding assay ([125I]GIP displacement, CHO-K1 membranes)
# T1 construct: expressed in transfected cells; host or cells: CHO-K1 clonal cells (membranes)
# T1 sequence (P48546 22-466): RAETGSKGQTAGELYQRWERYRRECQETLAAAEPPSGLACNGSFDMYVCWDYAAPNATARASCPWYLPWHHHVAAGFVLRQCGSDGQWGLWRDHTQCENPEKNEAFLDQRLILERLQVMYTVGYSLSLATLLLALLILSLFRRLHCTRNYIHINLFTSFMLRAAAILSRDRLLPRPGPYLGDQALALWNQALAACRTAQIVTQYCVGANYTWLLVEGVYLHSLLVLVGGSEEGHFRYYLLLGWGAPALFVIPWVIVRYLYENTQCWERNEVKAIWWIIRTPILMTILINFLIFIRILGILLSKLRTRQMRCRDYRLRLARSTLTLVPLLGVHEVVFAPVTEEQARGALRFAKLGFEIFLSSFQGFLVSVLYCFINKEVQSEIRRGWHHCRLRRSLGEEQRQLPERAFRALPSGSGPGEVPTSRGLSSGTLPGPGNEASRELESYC
# Description: A. In Vitro hGIP Receptor Binding Assay
# [2] = Human plasma half-life assay (LC-MS); type: in vitro ADME; conditions: incubated at 37° C., read-out: Human Plasma T½ (converted)
# How it was run: (§1)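 Aliquots taken from human or rat plasma at time points up to 72 h, quenched with formic acid and acetonitrile, centrifuged. Supernatant analyzed by LC-MS (ESI, positive ion, full scan) on a C8 column with a water/acetonitrile 1% formic acid gradient.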
# [3] = Rat plasma half-life assay (LC-MS); type: in vitro ADME; conditions: incubated at 37° C., read-out: Rat Plasma T½ (converted)
# How it was run: as §1
structure (smiles),measurement,setting,value
"CCCCCCCCCC(=O)NCCC[C@H](NC(=O)[C@H](CCCCN)NC(=O)[C@H](CCCCN)NC(=O)CNC(=O)[C@H](CCCCN)NC(=O)[C@H](CCC(N)=O)NC(=O)[C@H](C)NC(=O)[C@H](CC(C)C)NC(=O)[C@H](CC(C)C)NC(=O)[C@H](Cc1c[nH]c2ccccc12)NC(=O)[C@H](CC(N)=O)NC(=O)[C@@H](NC(=O)[C@H](Cc1ccccc1)NC(=O)[C@H](CC(=O)O)NC(=O)[C@H](CCC(N)=O)NC(=O)[C@H](CCC(N)=O)NC(=O)[C@H](Cc1c[nH]cn1)NC(=O)[C@@H](NC(=O)[C@H](CCCCN)NC(=O)[C@H](CC(=O)O)NC(=O)[C@H](CCSC)NC(=O)[C@H](C)NC(=O)[C@@H](NC(=O)[C@H](CO)NC(=O)[C@H](Cc1ccc(O)cc1)NC(=O)[C@H](CC(=O)O)NC(=O)[C@H](CO)NC(=O)C1(NC(=O)CCCCCCCCC)CCCCC1)[C@@H](C)CC)[C@@H](C)CC)C(C)C)C(=O)N[C@@H](CC(=O)O)C(=O)N[C@@H](Cc1c[nH]c2ccccc12)C(=O)N[C@@H](CCCCN)C(=O)N[C@@H](Cc1c[nH]cn1)C(=O)N[C@@H](CC(N)=O)C(=O)N[C@H](C(=O)N[C@H](C(=O)N[C@@H](CCC(N)=O)C(=O)O)[C@@H](C)O)[C@@H](C)CC [Example 21, [CH3-(CH2)8-C(O)-A6c^7, Orn^34(N-C(O)-(CH2)8-CH3)]hGIP(7-42)-OH] (Decanoyl-[Ac6c]SDYSIAMDKIHQQDFVNWLLAQKGKK[Orn](Decanoyl)DWKHNITQ-OH)",Ki,[1],163 nM
same,half-life at 0.1 mg/mL,[2],480 min
same,half-life at 0.1 mg/mL,[3],> 3 days
